PubChem BioAssay (NCI)
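Step 1: Grow cells in 96-well plates. Step 2: Expose to compound for 48 hours at 5 concentrations. Step 3: Interpolate endpoints linearly; if unreached, use highest concentration. The concentration for 50% growth inhibition is given as GI50. The concentration for full growth arrest is given as TGI.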

Tests used:
Assay in all cases: growth of human tumour cells (NCI), 48 h
LOX IMVI melanoma = test system: LOX IMVI melanoma
HOP-62 NSCLC = test system: HOP-62 NSCLC
ACHN renal = test system: ACHN renal
NCI-H226 lung = test system: NCI-H226 lung
OVCAR-5 ovarian = test system: OVCAR-5 ovarian
SK-MEL-2 melanoma = test system: SK-MEL-2 melanoma
SF-268 CNS = test system: SF-268 CNS
HL-60(TB) leukemia = test system: HL-60(TB) leukemia
A498 renal = test system: A498 renal
RXF 393 renal = test system: RXF 393 renal
SF-295 CNS = test system: SF-295 CNS
BT-549 breast = test system: BT-549 breast
MDA-MB-231 breast = test system: MDA-MB-231 breast
CCRF-CEM leukemia = test system: CCRF-CEM leukemia
HS 578T breast = test system: HS 578T breast
UACC-62 melanoma = test system: UACC-62 melanoma
NCI-H460 lung = test system: NCI-H460 lung
SF-539 CNS = test system: SF-539 CNS
TK-10 renal = test system: TK-10 renal
HT29 colon = test system: HT29 colon
U251 CNS = test system: U251 CNS
HCT-116 colon = test system: HCT-116 colon
HCT-15 colon = test system: HCT-15 colon
NCI-H522 lung = test system: NCI-H522 lung
UACC-257 melanoma = test system: UACC-257 melanoma
KM12 colon = test system: KM12 colon
CAKI-1 renal = test system: CAKI-1 renal
786-0 renal = test system: 786-0 renal
NCI-H23 lung = test system: NCI-H23 lung
M14 melanoma = test system: M14 melanoma
OVCAR-8 ovarian = test system: OVCAR-8 ovarian
SN12C renal = test system: SN12C renal
A549 NSCLC = test system: A549 NSCLC
SK-MEL-5 melanoma = test system: SK-MEL-5 melanoma
OVCAR-4 ovarian = test system: OVCAR-4 ovarian
PC-3 prostate = test system: PC-3 prostate
SNB-75 CNS = test system: SNB-75 CNS
SR leukemia = test system: SR leukemia
SK-OV-3 ovarian = test system: SK-OV-3 ovarian
SW-620 colon = test system: SW-620 colon
HCC-2998 colon = test system: HCC-2998 colon
MDA-MB-435 = test system: MDA-MB-435
COLO 205 colon = test system: COLO 205 colon
MOLT-4 leukemia = test system: MOLT-4 leukemia
MALME-3M melanoma = test system: MALME-3M melanoma
IGROV1 ovarian = test system: IGROV1 ovarian
DU-145 prostate = test system: DU-145 prostate
T-47D breast = test system: T-47D breast
K-562 leukemia = test system: K-562 leukemia
MDA-MB-468 breast = test system: MDA-MB-468 breast
RPMI-8226 leukemia = test system: RPMI-8226 leukemia
UO-31 renal = test system: UO-31 renal
SNB-19 CNS = test system: SNB-19 CNS
MCF7 breast = test system: MCF7 breast
OVCAR-3 ovarian = test system: OVCAR-3 ovarian
SK-MEL-28 melanoma = test system: SK-MEL-28 melanoma
EKVX NSCLC = test system: EKVX NSCLC
HOP-92 NSCLC = test system: HOP-92 NSCLC

O=C([Se]C1C=CCCC1)c1ccc(C(=O)[Se]C2C=CCCC2)s1 (stereo unspecified)
GI50 (LOX IMVI melanoma): 2.71 µM
TGI (LOX IMVI melanoma): 8.88 µM
GI50 (HOP-62 NSCLC): 1.17 µM
TGI (HOP-62 NSCLC): 6.65 µM
GI50 (ACHN renal): 2.32 µM
TGI (ACHN renal): 5.58 µM
GI50 (NCI-H226 lung): 3.42 µM
TGI (NCI-H226 lung): 15.2 µM
GI50 (OVCAR-5 ovarian): 2.07 µM
TGI (OVCAR-5 ovarian): 4.75 µM
GI50 (SK-MEL-2 melanoma): 1.77 µM
TGI (SK-MEL-2 melanoma): 3.71 µM
GI50 (SF-268 CNS): 3.34 µM
TGI (SF-268 CNS): 16.9 µM
GI50 (HL-60(TB) leukemia): 1.94 µM
TGI (HL-60(TB) leukemia): 4.81 µM
GI50 (A498 renal): 2.47 µM
TGI (A498 renal): 7.29 µM
GI50 (RXF 393 renal): 2.37 µM
TGI (RXF 393 renal): 5.69 µM
GI50 (SF-295 CNS): 0.366 µM
TGI (SF-295 CNS): 1.64 µM
GI50 (BT-549 breast): 3.55 µM
TGI (BT-549 breast): 11.7 µM
GI50 (MDA-MB-231 breast): 2.02 µM
TGI (MDA-MB-231 breast): 4.16 µM
GI50 (CCRF-CEM leukemia): 2.68 µM
TGI (CCRF-CEM leukemia): 8.66 µM
GI50 (HS 578T breast): 2.36 µM
TGI (HS 578T breast): 6.69 µM
GI50 (UACC-62 melanoma): 1.92 µM
TGI (UACC-62 melanoma): 4.2 µM
GI50 (NCI-H460 lung): 1.43 µM
TGI (NCI-H460 lung): 10.1 µM
GI50 (SF-539 CNS): 1.82 µM
TGI (SF-539 CNS): 3.23 µM
GI50 (TK-10 renal): 1.87 µM
TGI (TK-10 renal): 3.88 µM
GI50 (HT29 colon): 4.01 µM
TGI (HT29 colon): 25.7 µM
GI50 (U251 CNS): 1.94 µM
TGI (U251 CNS): 4.47 µM
GI50 (HCT-116 colon): 2.87 µM
TGI (HCT-116 colon): 8.75 µM
GI50 (HCT-15 colon): 3.1 µM
TGI (HCT-15 colon): 11.6 µM
GI50 (NCI-H522 lung): 1.71 µM
TGI (NCI-H522 lung): 3.32 µM
GI50 (UACC-257 melanoma): 2.44 µM
TGI (UACC-257 melanoma): 6.89 µM
GI50 (KM12 colon): 2.76 µM
TGI (KM12 colon): 7.08 µM
GI50 (CAKI-1 renal): 2.93 µM
TGI (CAKI-1 renal): 10.2 µM
GI50 (786-0 renal): 2.02 µM
TGI (786-0 renal): 4.08 µM
GI50 (NCI-H23 lung): 1.95 µM
TGI (NCI-H23 lung): 4.18 µM
GI50 (M14 melanoma): 2.02 µM
TGI (M14 melanoma): 4.56 µM
GI50 (OVCAR-8 ovarian): 1.79 µM
TGI (OVCAR-8 ovarian): 3.47 µM
GI50 (SN12C renal): 2.05 µM
TGI (SN12C renal): 4.34 µM
GI50 (A549 NSCLC): 3.09 µM
TGI (A549 NSCLC): 18.7 µM
GI50 (SK-MEL-5 melanoma): 1.83 µM
TGI (SK-MEL-5 melanoma): 3.99 µM
GI50 (OVCAR-4 ovarian): 2.19 µM
TGI (OVCAR-4 ovarian): 4.98 µM
GI50 (PC-3 prostate): 1.95 µM
TGI (PC-3 prostate): 5.95 µM
GI50 (SNB-75 CNS): 1.38 µM
TGI (SNB-75 CNS): 2.94 µM
GI50 (SR leukemia): 2.26 µM
TGI (SR leukemia): 5.53 µM
GI50 (SK-OV-3 ovarian): 2.33 µM
TGI (SK-OV-3 ovarian): 5.33 µM
GI50 (SW-620 colon): 2.32 µM
TGI (SW-620 colon): 6.01 µM
GI50 (HCC-2998 colon): 2.49 µM
TGI (HCC-2998 colon): 6.19 µM
GI50 (MDA-MB-435): 6.42 µM
TGI (MDA-MB-435): 23.1 µM
GI50 (COLO 205 colon): 2.42 µM
TGI (COLO 205 colon): 7.25 µM
GI50 (MOLT-4 leukemia): 2.89 µM
TGI (MOLT-4 leukemia): 8.34 µM
GI50 (MALME-3M melanoma): 2.27 µM
TGI (MALME-3M melanoma): 5.52 µM
GI50 (IGROV1 ovarian): 1.81 µM
TGI (IGROV1 ovarian): 3.48 µM
GI50 (DU-145 prostate): 3.48 µM
TGI (DU-145 prostate): 11.5 µM
GI50 (T-47D breast): 2.17 µM
TGI (T-47D breast): 5.19 µM
GI50 (K-562 leukemia): 3.96 µM
TGI (K-562 leukemia): 49.7 µM
GI50 (MDA-MB-468 breast): 2.13 µM
TGI (MDA-MB-468 breast): 5.18 µM
GI50 (RPMI-8226 leukemia): 2.53 µM
TGI (RPMI-8226 leukemia): 6.53 µM
GI50 (UO-31 renal): 1.73 µM
TGI (UO-31 renal): 3.38 µM
GI50 (SNB-19 CNS): 1.35 µM
TGI (SNB-19 CNS): 3.56 µM
GI50 (MCF7 breast): 2.79 µM
TGI (MCF7 breast): 10.6 µM
GI50 (OVCAR-3 ovarian): 2.13 µM
TGI (OVCAR-3 ovarian): 4.7 µM
GI50 (SK-MEL-28 melanoma): 3.11 µM
TGI (SK-MEL-28 melanoma): 11.6 µM
GI50 (EKVX NSCLC): 2.01 µM
TGI (EKVX NSCLC): 4.7 µM
GI50 (HOP-92 NSCLC): 2.85 µM
TGI (HOP-92 NSCLC): 11 µM
